Data taken from ChEMBL document CHEMBL5385947, “Tepuazines A-E: Phenazine Glycosides from a Venezuelan Quartz-Rich (Tepui) Cave Soil-Derived Streptomyces virginiae CMB-CA091” (J Nat Prod, 2024).

Legend:
[1] = system: Bacillus subtilis; experiment: Antibacterial activity against Bacillus subtilis ATCC 6633 assessed as inhibition of bacterial growth; assay type: functional, organism-based
[2] = system: Staphylococcus aureus; experiment: Antibacterial activity against Staphylococcus aureus ATCC 25923 assessed as inhibition of bacterial growth; assay type: functional, organism-based
[3] = system: Escherichia coli; experiment: Antibacterial activity against Escherichia coli ATCC 11775 assessed as inhibition of bacterial growth; assay type: functional, organism-based
[4] = system: Candida albicans; experiment: Antifungal activity against Candida albicans ATCC 10231 assessed as inhibition of bacterial growth; assay type: functional, organism-based
[5] = system: SW-620; experiment: Cytotoxicity against human SW620 cells assessed as inhibition of cell growth; assay type: functional, cell-based
[6] = system: NCI-H460; experiment: Cytotoxicity against human NCI-H460 cells assessed as inhibition of cell growth; assay type: functional, cell-based

Measured: IC50

O=C(O)c1cc2c(c3nc4c(O)cccc4nc13)[C@H]1Cc3nc4cccc(O)c4nc3[C@@H](O2)[C@H]1O
> 30 µM: all assays above

C[C@@H]1O[C@@H](Oc2cccc3nc4c(C(=O)O)cc5c(c4nc23)[C@H]2Cc3nc4cccc(O)c4nc3[C@@H](O5)[C@H]2O)[C@H](O)[C@H](O)[C@H]1O
> 30 µM: all assays above

O=C(O)c1cc2c(c3nc4c(O)cccc4nc13)[C@@H]1Cc3nc4cccc(O)c4nc3[C@@](O)(C1)O2
> 30 µM: all assays above

C[C@@H]1O[C@@H](Oc2cc(C(=O)O)c3nc4cccc(O)c4nc3c2)[C@H](O)[C@H](O)[C@H]1O
> 30 µM: all assays above

C[C@H]1O[C@H](Oc2cccc3nc4ccccc4nc23)[C@@H](O)[C@@H](O)[C@@H]1O
> 30 µM: all assays above

C[C@@H]1O[C@@H](Oc2cccc3nc4c(C(=O)O)cc5c(c4nc23)[C@@H]2Cc3nc4cccc(O)c4nc3[C@@](O)(C2)O5)[C@H](O)[C@H](O)[C@H]1O
> 30 µM: all assays above

C[C@H]1O[C@H](Oc2cccc3nc4c(N(C)c5ccc(C(=O)O)cc5)cccc4nc23)[C@@H](O)[C@@H](O)[C@@H]1O
> 30 µM: all assays above

CN(c1ccc(C(=O)O)cc1)c1cccc2nc3c(O)cccc3nc12 [IZUMIPHENAZINE C]
> 30 µM: all assays above
